Assay results published in patent US11752117B2, “Methods and compositions for diagnosing and treating glaucoma” (priority 2017, dated 2023).

Tested on: rabbits
Experiment: Effect of KATP channel blockers and openers on intraocular pressure in rabbits
Type: in vivo
Conditions: 800 μg of blockers, within 1 hour
Description: Tolbutamide, a well-known and world-wide clinically approved drug to treat Type II diabetes, was used as the prototype blocker of the KATP channel. […] Tolbutamide solution decreased IOP not only in glaucomatous patients, but also in patients with elevated IOP after cataract surgery.

## CCCNC(=O)NS(=O)(=O)c1ccc(Cl)cc1 [chlorpropanamide]
  effect on intraocular pressure: decreased IOP

## CC1=NS(=O)(=O)c2cc(Cl)ccc2N1 [diazoxide]
  effect on intraocular pressure: increased IOP significantly

## Cc1ccc(S(=O)(=O)NC(=O)NN2CCCCCC2)cc1 [tolazamide]
  effect on intraocular pressure: decreased IOP
